Data reported in the supplement of paper PMC10331698.
± gives the standard deviation of the averaged measurements.

Legend:
Test in all cases: level (log10 ratio to DMSO vehicle control); higher = higher biomarker level / cell amount than vehicle control
Conditions in all cases: in DMSO
[1] = compound: C=CC(=O)OCC(F)(F)C(F)(F)C(F)(F)C(F)(F)C(F)(F)C(F)(F)C(F)(F)F [1H,1H-Perfluorooctyl acrylate]
Procedure: (§1)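 BioMAP Diversity Plus panel of 12 human primary cell co-culture systems (3C, 4H, LPS, SAg, BT, BF4T, BE3C, CASM3C, HDF3CGF, KF3CT, MyoF, Mphg). Compounds were added 1 h before stimulation and left for 24 h (MyoF 48 h; BT 72 h for soluble read-outs or 6 d for IgG). Biomarkers were read by ELISA, cytotoxicity by SRB, PBMC viability and proliferation by Alamar Blue. Each well value was divided by the mean of 8 DMSO control wells on the same plate and log10 transformed; duplicate blinded samples were tested at 4 concentrations.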

[2] = compound: NCC(F)(F)C(F)(F)C(F)(F)C(F)(F)C(F)(F)C(F)(F)C(F)(F)F [1H,1H-Perfluorooctylamine]
Procedure: as §1

[3] = compound: O=C(O)C(F)(F)C(F)(F)C(F)(F)OC(F)(C(F)(F)F)C(F)(F)F [Perfluoro-4-isopropoxybutanoic acid]
Procedure: as §1

[4] = compound: O=C(O)C(F)(F)C(F)(F)OC(F)(F)F [Perfluoro-3-methoxypropanoic acid]
Procedure: as §1

[5] = compound: O=C(O)C(F)(F)OC(F)(F)C(F)(F)OC(F)(F)F [Perfluoro-3,6-dioxaheptanoic acid]
Procedure: as §1

[6] = compound: O=S(=O)(O)C(F)(F)C(F)(F)C(F)(F)C(F)(F)C(F)(F)C(F)(F)F [Perfluorohexanesulfonic acid]
Procedure: as §1

[7] = compound: OCCC(F)(F)C(F)(F)C(F)(F)C(F)(F)C(F)(F)C(F)(F)F [6:2 Fluorotelomer alcohol]
Procedure: as §1

Test System | level (log10) ([1]; 6700 nM) | level (log10) ([1]; 20000 nM) | level (log10) ([1]; 60000 nM) | level (log10) ([2]; 6700 nM) | level (log10) ([2]; 20000 nM) | level (log10) ([2]; 60000 nM) | level (log10) ([3]; 6700 nM) | level (log10) ([3]; 20000 nM) | level (log10) ([3]; 60000 nM) | level (log10) ([4]; 6700 nM) | level (log10) ([4]; 20000 nM) | level (log10) ([4]; 60000 nM) | level (log10) ([5]; 6700 nM) | level (log10) ([5]; 20000 nM) | level (log10) ([5]; 60000 nM) | level (log10) ([6]; 6700 nM) | level (log10) ([6]; 20000 nM) | level (log10) ([6]; 60000 nM) | level (log10) ([7]; 6700 nM) | level (log10) ([7]; 20000 nM)
LPS:CD106/VCAM-1 | -0.0045 ± 0.011 | -0.0165 ± 0.0021 | -0.0145 ± 0.0078 | -0.006 ± 0.023 | -0.015 ± 0.013 | -0.0135 ± 0.0092 | -0.0015 ± 0.016 | -0.0075 ± 0.0078 | -0.0095 ± 0.028 | 0.0065 ± 0.013 | -0.0065 ± 0.00071 | -0.01 ± 0.0028 | -0.0215 ± 0.023 | -0.007 ± 0.0085 | -0.0105 ± 0.005 | -0.016 ± 0.017 | -0.0155 ± 0.015 | 0.005 ± 0.016 | -0.0045 ± 0.0078 | -0.0025 ± 0.011
BE3C:CXCL8/IL-8 | 0.0375 ± 0.012 | 0.066 | 0.071 ± 0.042 | -0.017 ± 0.023 | -0.0075 ± 0.025 | -0.005 ± 0.013 | 0.0175 ± 0.025 | 0.0185 ± 0.019 | 0.015 ± 0.038 | -0.0445 ± 0.0064 | -0.031 ± 0.0028 | -0.007 ± 0.03 | -0.041 ± 0.033 | -0.007 ± 0.011 | -0.0155 ± 0.05 | 0.017 ± 0.0071 | 0.0175 ± 0.023 | -0.032 ± 0.044 | 0.01 ± 0.048 | -0.0085 ± 0.021
BF4T:CXCL8/IL-8 | 0.0275 ± 0.0092 | 0.01 ± 0.0057 | 0.0465 ± 0.0092 | 0.039 ± 0.021 | 0.009 ± 0.014 | 0.039 ± 0.0085 | 0.0025 ± 0.0064 | 0.0145 ± 0.005 | 0.0235 ± 0.028 | -0.004 ± 0.025 | -0.0225 ± 0.042 | 0.001 ± 0.068 | 0.044 ± 0.034 | 0.0475 ± 0.015 | 0.073 ± 0.045 | 0.002 ± 0.0085 | 0.0075 ± 0.0078 | 0.0255 ± 0.018 | 0.0185 ± 0.015 | 0.0005 ± 0.005
LPS:M-CSF | -0.001 ± 0.017 | 0.0045 ± 0.023 | 0.009 ± 0.0085 | 0.008 ± 0.024 | -0.015 ± 0.03 | -0.0235 ± 0.025 | 0.001 ± 0.0057 | -0.004 ± 0.023 | 0.016 ± 0.0028 | 0.001 ± 0.0085 | -0.0165 ± 0.00071 | 0.0235 ± 0.015 | -0.0505 ± 0.056 | -0.014 ± 0.055 | -0.0185 ± 0.057 | -0.0065 ± 0.025 | -0.0045 ± 0.025 | 0.036 ± 0.02 | 0.0085 ± 0.0035 | -0.005 ± 0.021
BT:sIL-6 | -0.088 ± 0.0042 | -0.103 ± 0.031 | -0.242 ± 0.045 | 0.041 ± 0.025 | 0.02 ± 0.05 | -0.1305 ± 0.00071 | 0.019 ± 0.044 | 0.019 ± 0.025 | 0.0035 ± 0.047 | 0.004 ± 0.11 | 0.0285 ± 0.036 | -0.0045 ± 0.05 | 0.021 ± 0.059 | -0.009 ± 0.059 | -0.0235 ± 0.064 | 0.046 ± 0.052 | 0.0105 ± 0.036 | -0.056 ± 0.061 | 0.0115 ± 0.032 | -0.038 ± 0.028
BF4T:CCL2/MCP-1 | -0.0145 ± 0.0021 | -0.0405 ± 0.0078 | -0.027 ± 0.0014 | 0.005 ± 0.02 | -0.013 ± 0.0071 | -0.009 ± 0.033 | 0.0235 ± 0.046 | 0.0325 ± 0.084 | 0.045 ± 0.078 | 0.0075 ± 0.026 | 0.0115 ± 0.043 | 0.0535 ± 0.054 | -0.0235 ± 0.0021 | 0.002 ± 0.0071 | -0.0255 ± 0.023 | 0.028 ± 0.045 | -0.0075 ± 0.013 | -0.042 ± 0.037 | 0.024 ± 0.033 | 0.02 ± 0.014
3C:CXCL9/MIG | 0.0015 ± 0.0035 | -0.002 ± 0.014 | 0.0115 ± 0.005 | 0.0025 ± 0.0021 | -0.021 ± 0.0042 | -0.0205 ± 0.005 | -0.0015 ± 0.0078 | -0.0085 ± 0.0021 | 0.0105 ± 0.0035 | 0.0025 ± 0.0021 | -0.0065 ± 0.0078 | 0.0115 ± 0.00071 | -0.012 ± 0.0042 | -0.0005 ± 0.019 | 0.0065 ± 0.005 | 0.0015 ± 0.0035 | 0.0035 ± 0.0092 | 0.007 ± 0.0085 | 0.0045 ± 0.005 | -0.0145 ± 0.0035
BE3C:CXCL9/MIG | -0.002 ± 0.0085 | 0.0035 ± 0.016 | 0.0015 ± 0.0078 | -0.0095 ± 0.011 | 0.0035 ± 0.022 | 0.0005 ± 0.0021 | 0.001 ± 0.0028 | 0.012 ± 0.0071 | 0.014 ± 0.017 | 0.005 ± 0.0014 | 0.0095 ± 0.018 | 0.0105 ± 0.0021 | -0.016 ± 0.0014 | -0.003 ± 0.021 | 0.0025 ± 0.0035 | 0.0035 ± 0.0092 | -0.001 ± 0.0028 | -0.007 ± 0.0028 | 0.01 ± 0.0057 | 0.001 ± 0.0057
BF4T:MMP-9 | 0.0065 ± 0.028 | 0.0035 ± 0.016 | 0.015 ± 0.033 | 0.0005 ± 0.0064 | -0.0105 ± 0.015 | 0.002 ± 0.0028 | 0.012 ± 0.0057 | 0.0275 ± 0.0064 | 0.058 ± 0.034 | -0.002 ± 0.0028 | -0.0125 ± 0.011 | 0.032 ± 0.013 | -0.028 ± 0.059 | -0.028 ± 0.031 | -0.0155 ± 0.022 | 0.006 ± 0.065 | 0.0115 ± 0.073 | 0.0135 ± 0.056 | -0.0025 ± 0.011 | -0.0105 ± 0.00071
4H:CD87/uPAR | -0.009 ± 0.062 | 0.0005 ± 0.037 | -0.003 ± 0.018 | -0.0235 ± 0.023 | -0.0215 ± 0.033 | 0.003 ± 0.014 | -0.004 ± 0.03 | -0.013 ± 0.0028 | -0.0075 ± 0.0035 | -0.031 ± 0.044 | -0.0165 ± 0.047 | -0.0045 ± 0.029 | -0.0205 ± 0.023 | -0.019 ± 0.011 | -0.019 ± 0.018 | -0.002 ± 0.023 | 0.0065 ± 0.013 | -0.0055 ± 0.022 | -0.002 ± 0.033 | 0.001 ± 0.033
SAg:SRB | -0.0005 ± 0.0035 | -0.002 ± 0.0028 | 0.0075 ± 0.0021 | 0.0005 ± 0.0035 | -0.002 ± 0.014 | -0.001 ± 0.027 | -0.001 ± 0.018 | -0.0085 ± 0.016 | -0.018 ± 0.0085 | -0.0025 ± 0.0078 | -0.0005 ± 0.0021 | -0.0045 ± 0.0064 | -0.0085 ± 0.0035 | -0.0175 ± 0.00071 | -0.008 ± 0.0085 | -0.019 ± 0.0085 | -0.018 ± 0.0042 | -0.033 ± 0.03 | -0.003 ± 0.027 | 0 ± 0.02
LPS:CCL2/MCP-1 | -0.003 ± 0.017 | -0.0045 ± 0.005 | 0.005 ± 0.0099 | -0.004 ± 0.031 | -0.024 ± 0.014 | -0.001 ± 0.0071 | -0.0045 ± 0.016 | 0.022 ± 0.025 | 0.0725 ± 0.0035 | -0.005 ± 0.0057 | 0.003 ± 0.0071 | 0.0055 ± 0.03 | 0.0005 ± 0.022 | -0.001 ± 0.04 | -0.0085 ± 0.025 | 0.0045 ± 0.0064 | 0.0045 ± 0.0064 | 0.028 ± 0.024 | 0.002 ± 0.0085 | -0.022 ± 0.0071
BT:sIL-17F | -0.0975 ± 0.16 | -0.324 ± 0.11 | -0.372 ± 0.063 | -0.033 ± 0.0071 | -0.0475 ± 0.0064 | -0.089 ± 0.017 | -0.0935 ± 0.005 | -0.092 ± 0.04 | -0.063 ± 0.045 | -0.161 ± 0.067 | -0.033 ± 0.052 | -0.0115 ± 0.011 | -0.0035 ± 0.18 | -0.033 ± 0.027 | -0.0495 ± 0.021 | 0.0235 ± 0.09 | 0.0375 ± 0.018 | -0.063 | -0.087 ± 0.17 | -0.146 ± 0.18
3C:HLA-DR | 0.0085 ± 0.0092 | 0.0155 ± 0.0035 | 0.0205 ± 0.019 | 0.004 ± 0.047 | 0.023 ± 0.057 | 0.023 ± 0.041 | 0.0145 ± 0.044 | -0.0035 ± 0.005 | 0.002 ± 0.016 | -0.0095 ± 0.015 | -0.043 ± 0.0085 | -0.014 ± 0.0028 | -0.035 ± 0.033 | -0.0075 ± 0.0078 | -0.0115 ± 0.021 | -0.0015 ± 0.015 | -0.0105 ± 0.023 | 0.0125 ± 0.047 | 0.0095 ± 0.012 | -0.01 ± 0.021
SAg:CXCL9/MIG | 0.003 ± 0.0099 | -0.009 ± 0.0014 | 0.0015 ± 0.012 | -0.0035 ± 0.005 | -0.019 ± 0.0057 | -0.01 ± 0.0014 | -0.007 ± 0.0099 | 0.002 ± 0.0042 | 0.002 ± 0.0071 | 0.001 ± 0.0057 | 0.006 ± 0.0042 | -0.002 ± 0.0099 | 0.006 ± 0.014 | 0.001 ± 0.014 | 0.0055 ± 0.0078 | 0.004 | -0.005 ± 0.0057 | 0.0035 ± 0.0078 | -0.0095 ± 0.0021 | -0.0055 ± 0.00071
